Assay results as given in patent publication US9079880B2, “Rho kinase inhibitors” (Boehringer Ingelheim International GmbH, priority 2010, dated 2015).

Experiments:
[1] = test system: spontaneously hypertensive rat, renal hypertensive rat and deoxycortisone acetate salt hypertensive rat models; conditions: cited from earlier work
[2] = test system: neointimal formation in rats; conditions: cited from earlier work
[3] = test system: Dahl salt-sensitive rats; conditions: rat, in vivo; cited from earlier work
[4] = test system: IL-1 beta-induced coronary stenosis; conditions: long term treatment; cited from earlier work
[5] = test system: rat stroke model; conditions: in vivo; cited from earlier work
[6] = target: T1, ROCKII (1-543) (Homo sapiens (Human), UniProt O75116); assay: Luciferin-Luciferase Assay (PKLight ATP detection); type: biochemical; conditions: 750 nM ATP, 500 nM peptide, 7.5 nM kinase
Description: 1. Luciferin-Luciferase Assay
The activity of ROCKII (1-543) kinase was measured utilizing Cambrex PKLight ATP Detection Reagent, a homogeneous assay technology using luciferin-luciferase to quantify residual ATP. The assay was performed in 384-well low-volume, white, non-binding surface microtiter plates (Corning). The assay buffer was 25 mM HEPES, pH 7.5, 10 mM MgCl2, 50 mM KCl, 0.2% BSA, 0.01% CHAPS, 100 μM Na3VO4 and 0.5 mM DTT. Test compounds, dissolved in neat DMSO at 500 μg/mL, were serially diluted for dose response for a final starting concentration of 3 μg/mL in 1% DMSO of assay buffer. ROCKII (1-543) (62,408Da) was diluted in assay buffer to a final concentration of 7.5 nM in a total volume of 15 μL. Positive controls were reaction mixtures containing no test compound; negative controls (blanks) were reaction mixtures containing no kinase. After 15 minutes of pre-incubation of the test compounds with the kinase, a mixture of ATP and peptide substrate ([…]) in assay buffer was added to each well for a final concentration of 750 nM ATP and 500 nM peptide, respectively. After 90 minutes of incubation of the kinase reaction at 28° C. temperature, 10 μL of PKLight ATP Detection Reagent (warmed to room temperature previously) was added to each well. The assay plate was incubated at room temperature for additional 15 minutes and then read on an Analyst in luminescence mode. Dose-response experiments for each of the test compounds were conducted in quadruplet. IC50 values of test compounds represent 50% response of the positive control from the dose-response curve.
Target sequence in this assay (O75116 1-543): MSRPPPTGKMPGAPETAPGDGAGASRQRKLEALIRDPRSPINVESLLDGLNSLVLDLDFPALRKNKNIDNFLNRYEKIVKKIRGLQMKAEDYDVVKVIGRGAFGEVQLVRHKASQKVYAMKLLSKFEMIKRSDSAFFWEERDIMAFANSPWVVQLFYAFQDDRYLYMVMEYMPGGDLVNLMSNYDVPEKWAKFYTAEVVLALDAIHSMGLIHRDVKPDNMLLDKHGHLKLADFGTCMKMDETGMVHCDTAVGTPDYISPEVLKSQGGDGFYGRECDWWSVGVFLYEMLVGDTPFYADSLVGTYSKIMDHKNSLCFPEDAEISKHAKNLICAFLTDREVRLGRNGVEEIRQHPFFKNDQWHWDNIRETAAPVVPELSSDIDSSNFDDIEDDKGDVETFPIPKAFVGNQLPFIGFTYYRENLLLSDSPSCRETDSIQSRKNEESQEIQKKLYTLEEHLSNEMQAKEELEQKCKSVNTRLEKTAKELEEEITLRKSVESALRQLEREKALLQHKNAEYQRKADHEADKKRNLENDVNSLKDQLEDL

[7] = target: T1, ROCKII (1-543); assay: IMAP Assay (fluorescence polarization, FAM S6 peptide); type: biochemical; conditions: 100 μM ATP, 200 nM FAM S6 peptide, 1 nM kinase; read-out: Assay 2 IC50
Description: This assay is performed using FAM S6 substrate peptide (Catalogue #R7184) and IMAP FP Screening Express Kit detection reagents from Molecular Devices (Sunnyvale, Calif.) in IMAP kinase reaction buffer (Tris-HCl, pH 7.2, 10 mM MgCl2, 0.05% NaN3, 0.1% phosphate-free BSA) containing 1 mM DTT. Test compounds dissolved in neat DMSO at 0.3 mg/mL are serially diluted 1 to 3 for concentration response in 100% DMSO. The DMSO serial dilutions are further diluted 33.33-fold in kinase reaction buffer, and 10 μL of this buffer dilution is transferred to Corning black 96-well half area NBS plates for a final top concentration of 3 μg/mL in 1% DMSO. 10 μL aliquot of 3 nM ROCKII (1-543) diluted in kinase reaction buffer is added to each assay well for a final concentration of 1 nM kinase. 10 μL of a mixture of 600 nM FAM S6 peptide and 300 μM ATP diluted in kinase reaction buffer is added to each well for a final concentration of 200 nM peptide and 100 μM ATP. The kinase reaction mixture is incubated for 60 minutes at room temperature. Positive controls are reaction mixtures containing no test compound and negative controls (blanks) are reaction mixtures containing no kinase. The kinase reaction is stopped by addition of 60 μL IMAP progressive binding reagent (Catalog #R7284) diluted 400-fold in 1× Binding buffer A. After 30 min of incubation at room temperature, the plates are read for fluorescence polarization on Analyst Plate Reader using Ex 485 nm, Em 530 nm, and FL 505 dichroic mirror. The mP signals are converted to percent of control (POC) values using the formula: POC=100*(Signal−BCTRL)÷(PCTRL−BCTRL)
Where Signal is the test well signal, BCTRL is the average of background (negative control) well signals on the plate and PCTRL is the average of positive control well signals on the plate. For the concentration-responsive compounds, POC as a function of test compound concentration is fitted to a 4-parameter logistic equation of the form: Y=A+(B−A)/[1+(x/C)D] Where A, B, C, and D are fitted parameters (parameter B is fixed at zero POC), and x and y are the independent and dependent variables, respectively. The IC50 is determined as the inflection point parameter, C.
Target sequence in this assay (O75116 1-543, species assumed): as the sequence (O75116 1-543) above

IC50 [6] [nM] | IC50 [7] [nM] | SMILES | other results
 |  | C[C@@H](N)[C@H]1CC[C@H](C(=O)Nc2ccncc2)CC1 [Compound Y-27632, Y-27632] | blood pressure in control rats ([1]; control rats): only a minor effect on blood pressure; blood pressure in three rat models of hypertension ([1]; hypertensive rats): significantly decrease blood pressure; neointimal formation [2]: inhibited neointimal formation; ventricular hypertrophy and function [3]: improve ventricular hypertrophy and function
 |  | O=S(=O)(c1cccc2cnccc12)N1CCCNCC1 [fasudil] | coronary constrictive remodeling [4]: promote a regression of coronary constrictive remodeling; coronary stenosis [4]: progressively reduce coronary stenosis; infarct size and neurologic deficit [5]: reduce both the infarct size and neurologic deficit
2.6 | 6.9 | O=C(Nc1nc2c(s1)C[C@@H](N1CCOCC1)CC2)c1cccc([C@H]2CCCN2C(=O)c2csc(-c3cccnc3)n2)c1 [Compound 136] | 
2.3 | 6.7 | NC(=O)c1ccc2nc(C(=O)N3CCC[C@@H]3c3cccc(C(=O)Nc4nc5c(s4)C[C@@H](N4CCOCC4)CC5)c3)cn2c1 [Compound 124] | 
7.8 | 9.7 | COc1ccc(C(=O)N2CCC[C@@H]2c2cccc(C(=O)Nc3nc4c(s3)C[C@@H](N3CCOCC3)CC4)c2)cc1C [Compound 116] | 
3.1 | 5.8 | COc1ccc(C(=O)N[C@H](C)c2cccc(C(=O)Nc3nc4c(s3)CN(C)CC4)c2)cc1OC [Compound 97] | 
2.7 | 30 | Nc1nonc1-n1nnc(C(=O)N2CCC[C@@H]2c2cccc(C(=O)Nc3nc4c(s3)C[C@@H](N3CCOCC3)CC4)c2)c1-c1ccccc1 [Compound 134] | 
1.4 | 0.7 | CN1CCc2nc(NC(=O)c3cccc([C@H]4CCCN4C(=O)Nc4ccc(C(N)=O)cc4)c3)sc2C1 [Compound 44] | 
1.6 | 0.8 | CCCN[C@H]1CCc2nc(NC(=O)c3cccc([C@H]4CCCN4C(=O)Nc4cccc(C#N)c4)c3)sc2C1 [Compound 29, (R)-2-[3-((S)-6-propylamino-4,5,6,7-tetrahydro-benzothiazol-2-ylcarbamoyl)-phenyl]-pyrrolidine-1-carboxylic acid (3-cyano-phenyl)-amide] | 
3.4 | 8.5 | N#Cc1ccc(NC(=O)COc2cccc(C(=O)Nc3nc4c(s3)C[C@@H](N3CCOCC3)CC4)c2)cc1 [Compound 13] | 
2.3 | 3.6 | CN(C)[C@H]1CCc2nc(NC(=O)c3cccc([C@H]4CCCN4C(=O)c4ccc5[nH]c(=O)ccc5c4)c3)sc2C1 [Compound 108] | 
2.5 | 6.3 | O=C(Nc1nc2c(s1)C[C@@H](N1CCOCC1)CC2)c1cccc([C@H]2CCCN2C(=O)c2ccc3cc(O)ccc3c2)c1 [Compound 130] | 
1 | 0.3 | CCCN[C@H]1CCc2nc(NC(=O)c3cccc([C@@H](C)NC(=O)c4ccc(OC)c(OC)c4)c3)sc2C1 [Compound 31, 3,4-dimethoxy-N-{(R)-1-[3-((S)-6-propylamino-4,5,6,7-tetrahydro-benzothiazol-2-ylcarbamoyl)-phenyl]-ethyl}-benzamide] | 
